Measured values published in patent publication US20070042976A1, “Method of treating cosmetic and dermatologic conditions by a demethylating agent” (priority 2005, published 2007).
Converted amounts (≈) assume the structure as drawn. Marks after values point to notes of the source that are not given here.

Columns and labels:
alpha 2 collagen gene [1] = details: teratocarcinoma F9 cells; cited from earlier work
human fibroblasts = assay: Proliferation of human fibroblasts in culture; assay type: cell-based; details: previously found by applicant
collagen gene expression = details: human cancer cells, including fibrosarcomas and breast carcinoma; cited from earlier work
[2] = test system: Pro collagen alpha I gene; details: human rhabdomyosarcoma cells; cited from earlier work
alpha 2 collagen gene [3] = details: resistant cells such as HaCaT, Hela and HepG2; cited from earlier work
pieces of human skin = assay: Incorporation of labeled proline into pieces of human skin (collagen biosynthesis, skin organ culture); details: for Collagen (DPM/mg tissue): control 333
collagen type IV gene = details: transformed rat liver cells; cited from earlier work
[4] = test system: Human squamous cell carcinoma line (SCL-1) cells; assay: Cell death in human squamous cell carcinoma line with or without UVB (MTT); assay type: cell-based; details: for % Cell Death with UV: UV alone 22 +/− 0.1
Procedure: Determination of Cell Death in Response to 5-azacytidine in Human Squamous Cell Carcinoma Line
Human squamous cell carcinoma line (SCL-1) cells were grown in DMEM medium with 10% FCS. 5-azacytidine was added at the indicated concentrations after the cells reached 100% confluence. The cultures were incubated for 24 hrs at 37° C. and then washed in Hepes buffer (pH=7.4) with isotonic salt and exposed to UVB radiation. Cell death was determined using MTT [3-(4, 5-dimethylthiazol-2-yl)-2, 5-diphenyltetrazolium bromide] kit obtained from Sigma. Each concentration of the drug was tested in six wells and the degree of inhibition (vs. controls of untreated cultures) was given as an average (% cell death +/−standard deviation).
The human squamous cells (SCL-1) were grown to about 50% confluence. The cultures were treated with minimal amount of 5-azacytidine, UV radiation, or the combination and cell viability was quantified. […] The exposure of the cells to UV, in the absence of the drug induced a cytotoxic effect in about 22% of the cells. Together, the combination of both UV and 5-azacytidine induced cell death at about 50% of the cancer cells.

normal human fibroblasts = assay: Human fibroblasts collagen synthesis assay (14C-proline incorporation, collagenase-labile counts); assay type: cell-based; parameters: reduction of the amount of collagen synthesized: dose or concentration left out as unconfirmed; details: for Collagen (DPM/cell) with TGF β 1: with TGF β 1 (10 ng/ml), control 9945 +/− 602; for Collagen (DPM/cell) without TGF β 1: control 5267 +/− 1079
Procedure: Human Fibroblasts Collagen Synthesis Assay
Human fibroblasts were grown in DMEM (10% FCS) in 24-wells plates to approximately 50% confluence. 5-azacytidine (from Sigma) was added for 5 hrs of 37° C. TGF-β1 was added (10 ng/ml) for 2 hours (hrs) at 37° C. Then, L-[U-14C]-proline solution (specific radioactivity 269 mCi/mmol) was added (1.25 μCi/well) and incubated for 20 hrs at 37° C. The cells were then washed with 5 mM proline in PBS and 5 mM proline in 70% methanol and incubated at […] for 20 hrs. […] After 20 hrs, the collagenase treated cultures were centrifuged and a new collagenase solution was added to the cells. The cultures were incubated with the enzyme for an additional 20 hrs. Proline incorporated into protein and released by collagenase treatment is defined as “collagen”. Incorporation of labeled proline into collagen was evaluated by scintillation counting of supernatants. In parallel, the cultures were checked for vitality using a 3-(4, 5-dimethylthiazol-2-yl)-2, 5-diphenyltetrazolium bromide (MTT) reaction. Each concentration of 5-azacytidine was analyzed (n=6), and the effect of 5-azacytidine on collagen synthesis were expressed as averaged DPM per number of viable cells +/− standard deviation.
Human fibroblasts were grown to about 50% confluence and exposed to medium with or without TGF β.

[5] = Azacytidine 4.8 ug/ml, listed as Azacytidine

Structure (SMILES): Nc1ncn([C@@H]2O[C@H](CO)[C@@H](O)[C@H]2O)c(=O)n1 [5-azacytidine]
- effect on transcription of alpha 2 collagen gene (alpha 2 collagen gene [1]): induces transcription of alpha 2 collagen gene
- effect on proliferation of fibroblasts in culture (human fibroblasts): inhibits the proliferation
- effect on collagen gene expression (collagen gene expression): increased or reactivated collagen gene expression
- effect on transcription of Pro collagen alpha I gene [2]: transcriptional activation of the Pro collagen alpha I gene
- effect on alpha 2 collagen gene (alpha 2 collagen gene [3]): reactivated
- effect on collagen biosynthesis by human skin (pieces of human skin): inhibited collagen biosynthesis in a dose dependent manner
- % Inhibition of collagen (pieces of human skin; Azacytidine 6.25 ug/ml): 40%
- Collagen (DPM/mg tissue) (pieces of human skin; Azacytidine 6.25 ug/ml): 199 +/− 34* DPM/mg tissue
- % Inhibition of collagen (pieces of human skin; Azacytidine 25 ug/ml): 48%
- Collagen (DPM/mg tissue) (pieces of human skin; Azacytidine 25 ug/ml): 174 +/− 53* DPM/mg tissue
- % Inhibition of collagen (pieces of human skin; Azacytidine 100 ug/ml): 72%
- Collagen (DPM/mg tissue) (pieces of human skin; Azacytidine 100 ug/ml): 92 +/− 13* DPM/mg tissue
- IC50 (pieces of human skin; Homo sapiens, read-out: IC50 of collagen biosynthesis in human skin): ~25 µg/mL (≈ 102 µM)
- effect on transcription of collagen type IV gene (collagen type IV gene): increases transcription of the collagen type IV gene
- % Cell Death with UV ([4]; Azacytidine 0.53 ug/ml): 19 +/− 0.5%
- % Cell Death without UVB ([4]; Azacytidine 0.53 ug/ml): 2 +/− 0.7* %
- % Cell Death with UV ([4]; Azacytidine 1.6 ug/ml): 21 +/− 0.6%
- % Cell Death without UVB ([4]; Azacytidine 1.6 ug/ml): 5 +/− 0.3* %
- % Cell Death with UV ([4]; Azacytidine 4.8 ug/ml): about 50%
- % Cell Death with UV [4, 5]: 50 +/− 0.2%
- % Cell Death without UVB ([4]; Azacytidine 4.8 ug/ml): about 29%
- % Cell Death without UVB [4, 5]: 29 +/− 13* %
- IC50 ([4]; Homo sapiens, SCL-1, 5-Azacytidine alone (no UV)): 11 µg/mL
- combined effect of photo damage and drug on viability ([4]; UV plus 5-azacytidine): additive effect
- Collagen (DPM/cell) with TGF β 1 (normal human fibroblasts; Azacytidine 1 μg/ml): 8259 +/− 482 DPM/cell
- Collagen (DPM/cell) without TGF β 1 (normal human fibroblasts; Azacytidine 1 μg/ml): 5306 +/− 717 DPM/cell
- Collagen (DPM/cell) with TGF β 1 (normal human fibroblasts; Azacytidine 5 μg/ml): 6801 +/− 1359* DPM/cell
- Collagen (DPM/cell) without TGF β 1 (normal human fibroblasts; Azacytidine 5 μg/ml): 4015 +/− 706* DPM/cell
- Collagen (DPM/cell) with TGF β 1 (normal human fibroblasts; Azacytidine 25 μg/ml): 5183 +/− 816* DPM/cell
- Collagen (DPM/cell) without TGF β 1 (normal human fibroblasts; Azacytidine 25 μg/ml): 2323 +/− 139* DPM/cell
- IC50 (normal human fibroblasts; Fibroblast, stated as similar to the IC50 in human skin, read-out: IC50 of collagen biosynthesis in cultured human fibroblasts): ~25 µg/mL (≈ 102 µM)
- effect on TGF β upregulation of collagen biosynthesis (normal human fibroblasts; TGF β stimulated fibroblasts): inhibited in a dose dependent manner the ability of TGF β to upregulate collagen biosynthesis
- reduction of the amount of collagen synthesized (normal human fibroblasts; concentration of about 25, basal (without TGF β)): approximately 55%
- effect on basal collagen produced (normal human fibroblasts; without TGF β): inhibited the collagen produced in a dose dependent manner
